Assays:
[1] = system: brown marmorated stink bug; conditions: cited from earlier work
[2] = system: individual sensillum (olfactory receptor neurons) on the brown marmorated stink bug antenna; assay: electrophysiological recording from an individual antennal sensillum in response to an olfactory stimulus; design: species or system Halyomorpha halys; conditions: 2 second stimulus, 100 μg dosage load in ethanol, versus 2 second control stimulus; FIG. 3
Excerpt: Many aspects of insect behavior are mediated by olfactory signals. These olfactory signals are detected by sensory structures called sensilla which are innervated by olfactory receptor neurons and are located on various parts of the insect body including the antenna, mouthparts and tarsi. It is possible to determine the capabilities of the peripheral sensory system by using electrophysiology methods. Basically, extracellular neural responses from the individual receptor neurons located in the sensilla on the antenna of the stinkbug can be electrically recorded in response to stimulation with various concentrations of olfactory odorants.
Details of the recording methodology for insects have been described previously. […] The action potentials within this sensillum can then be monitored and recorded. […] Electrical signals obtained from the neurons within the sensillum are band-passed filtered (300-3K Hz), amplified (1000×) and analyzed using commercial software, Autospike (Syntech, Hilversum, The Netherlands). […]
FIG. 3 represents screen shots of the analysis of the above trace (FIG. 2) from the software that used to analyze the electrophysiological data. […] In the histograms, each bar represents the number of impulses calculated for a metric of impulse size.

In the case of `CCC\C=C/C=C/C=C/C(=O)OC` [methyl (2E,4E,6Z)-decatrienoate], the attraction by itself ([1]; early season trials) is given as “not attractive by itself”, the “cross-attraction of the brown marmorated stink bug” value ([1]; in vivo) is given as “cross-attractive” and the attraction of adults ([1]; late in the season) is given as “reliably attracted”.

In the case of ethyl (2E,4E,6Z)-decatrienoate, the “number of impulses (activity) in stimulus histogram compared to control histogram” value [2] is reported as “more activity in the bottom stimulus histogram as compared to the top control histogram”.
